# Results taken from PMC10882974 (Environmental Science & Technology, 2024).
# “Also recorded” adds a separate entry of the source. Where a name gives a salt, the structure may show the parent alone.
# Assays:
# [1] = stability of fluoxetine in S medium; settings: 10 mg/L, 20 °C, 0.5-24 h
# Description: After 0.5, 1, 2, 5, 10, and 24 h at 20 °C, samples of spiked medium were stored at −80 °C until analysis. […] Therefore, two replicates of the samples were washed three times with M9 buffer, while the other two were just centrifuged once, and the entire supernatant was removed.
# E. coli containing pellets were resuspended in 250 μL of methanol and frozen in liquid nitrogen and then left at room temperature to thaw, followed by 5 min of sonication in a sonication bath. The freeze–thawing and sonication were repeated twice more and after this, samples were centrifuged at 15,000g for 15 min. The supernatant was stored at −20 °C until analysis.
# Separation was performed on a UHPLC system (Shimadzu) with a Kinetex 1.7 μm C18 100 A LC column (150 mm × 2.1 mm, Phenomenex).
# [2] = test system: Gammarus pulex, Nile tilapia, and Japanese Medaka; settings: cited from earlier work
# [3] = test system: marine mussels, freshwater mussels, Daphnia magna; settings: cited from earlier work
# cyp35-a2 = cyp35-a2 gene expression (qRT-PCR); type: in vivo, Caenorhabditis elegans
# Description: 1500 worms were collected in eppendorf tubes with 300 μL of RLT lysis buffer (Qiagen, Hilden, Germany) and homogenized using a Minilys homogenizer (Bertin Technologies) at middle speed four times for 20 s and kept on ice in between. Total RNA was isolated with the QIAshredder and RNeasy mini kits (Qiagen) according to the manufacturer’s protocol. The QuantiTect reverse transcription kit (Qiagen) was used for cDNA generation. RT-qPCR was performed on a Biorad CFX Opus 384 System using an iQ SYBR Green Supermix (Biorad) for amplification. The gene of interest was cyp35-a2, and cdc-42 was used as a housekeeping gene. Primers were generated by Biolegio (Nijmegen, The Netherlands); further details on the RT-qPCR and primers can be found in SI A7. Three biological replicates were used for each treatment.
# [4] = toxicokinetics experiment II: short-term uptake of different concentrations; type: in vivo, Caenorhabditis elegans; settings: k2f elimination rate constant of fluoxetine (k2FLX,sum), exp II, no E. coli, 2 h
# Description: (§1) In between cycles, the samples were kept on ice. […] Samples were stored at −20 °C until further analysis.
# (§2) All parameters and units are summarized in SI A3.
# C. elegans [5] = assay: as above; type: in vivo, Caenorhabditis elegans; settings: for BCF FLX (kinetic bioconcentration factor) / k1 uptake rate constant: exp II, no E. coli, 2 h
# Description: as §1, §2
# C. elegans [6] = assay: norfluoxetine uptake and coexposure with fluoxetine (SI A5); type: in vivo, Caenorhabditis elegans; settings: fluoxetine 5 and 20 mg/L with norfluoxetine 20 mg/L
# Description: Alternatively, there could be a concentration-dependent increase in metabolism over time resulting from enzyme induction. This was modeled with an extra metabolism rate constant ke that was included after 10 h (eq 1a and Figure 4C,D).
# [7] = toxicokinetics experiment III: effect of E. coli on uptake; type: in vivo, Caenorhabditis elegans; settings: 10 mg/L, k2f elimination rate constant of fluoxetine (k2FLX,sum), exp III, 10 h
# Description: as §1, §2
# C. elegans [8] = assay: as above; type: in vivo, Caenorhabditis elegans; settings: for BCF FLX (kinetic bioconcentration factor) / kt transformation rate constant of fluoxetine to norfluoxetine: exp III, 10 h
# Description: as §1, §2
# [9] = toxicokinetics experiment IV: long-term exposure of L4 and adult worms; settings: whole organism (worm homogenate), iv, exp IV, with E. coli, 48 h
# Description: (§3) Three replicates of 1500 pooled C. elegans were used for each time point for each concentration. For experiments with E. coli, the OD600 was kept constant at 0.4.
# (§4) C. elegans containing pellets were resuspended in 500 μL of methanol, and 0.6 g of […] ceramic beads (1.4 mm) were added to the vial. The samples were homogenized three times for 20 s using a Minilys homogenizer (Bertin Technologies) at middle speed. In between cycles, the samples were kept on ice. […] The supernatant was transferred to a glass tube, the pellet (including the ceramic beads) was resuspended in 500 μL of methanol, and the homogenization, sonication, and centrifugation cycle was repeated twice more to result in a three-step extraction. The total combined supernatant was concentrated to dryness under a gentle nitrogen stream and redissolved in 500 μL of methanol to a final concentration of the IS of 1 μM. Samples were stored at −20 °C until further analysis.
# (§5) A one-compartment model was selected since chemical concentrations could only be measured for the whole organism. […] All parameters and units are summarized in SI A3.
# (§6) The kinetic bioconcentration factor[33] was calculated with eq 3, and the ke and kt were only included when applicable to the respective experiment [drawing 4] 3
# (§7) Model fitting was performed by adding the ordinary differential equations to the BYOM modeling package version 6.3 (http://www.debtox.info/byom.html) in Matlab R2022b.[34] […] Optimization was performed with the Melder–Mead Simplex Search method, minimizing the minus log-likelihood. […] Model script deviations from the BYOM model can be found in SI A9.
# C. elegans [10] = assay: as above
# Description: as §3, §4, §5, §6, §7
# [11] = toxicokinetics experiment I: elimination after 1 h exposure; type: in vivo, Caenorhabditis elegans; settings: whole organism (worm homogenate)
# Description: as §1, §2
# C. elegans [12] = assay: as above; type: in vivo, Caenorhabditis elegans; settings: after 1 h exposure; no E. coli
# Description: as §1, §2
# [13] = combined experiments II, III, IV
# [14] = with E. coli, 10 mg/L, k1, k2FLX, k2NF, kt constrained (eq 1b)
# [15] = with E. coli, 10 mg/L, no constraint
# [16] = exp IV, with E. coli, 0.5 mg/L, 48 h
# [17] = exp IV, with E. coli, 20 mg/L, 48 h
structure (smiles),measurement,setting,value
"CNCCC(Oc1ccc(C(F)(F)F)cc1)c1ccccc1 (centres unmarked) [fluoxetine, Fluoxetine hydrochloride]",concentration of fluoxetine in S medium without C. elegans over time,[1],constant over time
same,k2 elimination rate,[2],0.0008 to 0.08 h⁻¹
same,BCF values in other species,[3],"100 to 10,000"
same,increase in CYP gene expression (cyp35-a2) over time,cyp35-a2; 0.5 mg/L fluoxetine,not observed
same,CYP gene expression (cyp35-a2) over time,"cyp35-a2; 20 mg/L fluoxetine, observed for 24 h, not yet for 10 h",increase in CYP gene expression over time
same,k el,"[4]; whole organism (homogenate of pooled worms), 5 mg/L, k2FLX constrained (value of experiment I)",0.000394 s⁻¹
same,k el,"[4]; whole organism (homogenate of pooled worms), 5 mg/L, no constraint",0.000333 s⁻¹
same,k el,"[4]; whole organism (homogenate of pooled worms), 20 mg/L, k2FLX constrained (value of experiment I)",0.000394 s⁻¹
same,k el,"[4]; whole organism (homogenate of pooled worms), 20 mg/L, no constraint",0.000778 s⁻¹
same,k el,"[4]; whole organism (worm homogenate), 0.5 mg/L, k2FLX constrained (value of experiment I)",0.000394 s⁻¹
same,k el,"[4]; whole organism (worm homogenate), 0.5 mg/L, no constraint",0.000981 s⁻¹
same,BCF versus exposure concentration,C. elegans [5]; [13],BCF: negatively correlated
same,k1 versus exposure concentration,C. elegans [5]; [13],k1: negatively correlated
same,BCF FLX (kinetic bioconcentration factor),"C. elegans [5]; 0.5 mg/L, k2FLX constrained",15.85
same,k1 uptake rate constant,"C. elegans [5]; 0.5 mg/L, k2FLX constrained",22.5 L/(kgnem h)
same,BCF FLX (kinetic bioconcentration factor),"C. elegans [5]; 0.5 mg/L, no constraint",13.06
same,k1 uptake rate constant,"C. elegans [5]; 0.5 mg/L, no constraint",46.1 L/(kgnem h)
same,BCF FLX (kinetic bioconcentration factor),"C. elegans [5]; 5 mg/L, k2FLX constrained",7.18
same,k1 uptake rate constant,"C. elegans [5]; 5 mg/L, k2FLX constrained",10.2 L/(kgnem h)
same,BCF FLX (kinetic bioconcentration factor),"C. elegans [5]; 5 mg/L, no constraint",7.66
same,k1 uptake rate constant,"C. elegans [5]; 5 mg/L, no constraint",9.19 L/(kgnem h)
same,BCF FLX (kinetic bioconcentration factor),"C. elegans [5]; 20 mg/L, k2FLX constrained",3.20
same,k1 uptake rate constant,"C. elegans [5]; 20 mg/L, k2FLX constrained",4.54 L/(kgnem h)
same,BCF FLX (kinetic bioconcentration factor),"C. elegans [5]; 20 mg/L, no constraint",2.71
same,k1 uptake rate constant,"C. elegans [5]; 20 mg/L, no constraint",7.58 L/(kgnem h)
same,effect of coexposure with norfluoxetine on internal fluoxetine concentrations,C. elegans [6],"no significant differences; also recorded: tested, but no effect"
same,k el,"[7]; whole organism (homogenate of pooled worms), no E. coli",0.000461 s⁻¹
same,k el,"[7]; whole organism (worm homogenate), with E. coli, k1, k2FLX, k2NF, kt constrained (eq 1b)",0.000461 s⁻¹
same,k el,"[7]; whole organism (worm homogenate), with E. coli, no constraint",0.000111 s⁻¹
same,time to reach peak internal fluoxetine concentrations,C. elegans [8]; Figure 4,2 to 5 h
same,"effect of presence of bacteria on k2FLX,sum",C. elegans [8]; Figure 5,decreased to around half
same,BCF FLX (kinetic bioconcentration factor),"C. elegans [8]; no E. coli, 10 mg/L",8.19
same,kt transformation rate constant of fluoxetine to norfluoxetine,"C. elegans [8]; no E. coli, 10 mg/L",0.05 h⁻¹
same,BCF FLX (kinetic bioconcentration factor),C. elegans [8]; [14],8.19
same,kt transformation rate constant of fluoxetine to norfluoxetine,C. elegans [8]; [14],0.05 h⁻¹
same,BCF FLX (kinetic bioconcentration factor),C. elegans [8]; [15],20.67
same,kt transformation rate constant of fluoxetine to norfluoxetine,C. elegans [8]; [15],0.065 h⁻¹
same,effect of presence of bacteria on internal concentration of fluoxetine,"C. elegans [8]; experiment III, 10 mg/L",almost doubled
same,BCF versus presence of E. coli,C. elegans [8]; in vivo,BCF: positively correlated
same,k2 versus presence of E. coli,C. elegans [8]; in vivo,k2: negatively correlated
same,k el,"[9]; 0.5 mg/L, k2f elimination rate constant of fluoxetine (k2FLX,sum)",0.000336 s⁻¹
same,k el,"[9]; 0.5 mg/L, ke extra metabolism rate constant after 10 h, 0.5 mg/L",1.42e-05 s⁻¹
same,k el,"[9]; 20 mg/L, k2f elimination rate constant of fluoxetine (k2FLX,sum)",0.000233 s⁻¹
same,k el,"[9]; 20 mg/L, ke extra metabolism rate constant after 10 h, 20 mg/L",0.000144 s⁻¹
same,"steady-state concentrations, L4 versus adult C. elegans (life stage)","C. elegans [10]; 0.5 and 20 mg/L, 48 h","did not show significant differences; also recorded: tested, but no effect (L4 vs adult)"
same,IR (ingestion rate) versus (toxic) effect on feeding,"C. elegans [10]; E. coli related, modeled with eq 1b",IR (ingestion rate): negatively correlated–neurotoxic effect
same,k2 versus CYP P450 induction (linked to exposure time),C. elegans [10]; adding extra ke parameter over time,k2: positively correlated (adding extra ke parameter over time)
same,BCF FLX (kinetic bioconcentration factor),C. elegans [10]; [16],24.66
same,k1 uptake rate constant,C. elegans [10]; [16],31.1 L/(kgnem h)
same,BCF FLX (kinetic bioconcentration factor),C. elegans [10]; [17],6.36
same,k1 uptake rate constant,C. elegans [10]; [17],9.01 L/(kgnem h)
same,kt transformation rate constant of fluoxetine to norfluoxetine,C. elegans [10]; [17],0.056 h⁻¹
same,k el,"[11]; 1 h exposure (fluoxetine 0.5, 5, 20 mg/L; norfluoxetine 20 mg/L), then clean medium, no E. coli, read-out: k2sum elimination rate constant (+95% CI) (converted)",0.000394 s⁻¹
same,k el,"[11]; 1 h exposure, then clean medium, slow phase after 1 h, no E. coli, read-out: k2slow elimination rate constant (+95% CI) (converted)",0.000131 s⁻¹
same,k el,"[11]; calculated from k2sum and k2slow, read-out: k2fast elimination rate constant (converted)",0.000264 s⁻¹
same,elimination over time after transfer to clean medium,C. elegans [12],almost all fluoxetine was eliminated after 6 h
